Broadly, the MIC is the lowest concentration that inhibits growth of the organism. A word on the IC50: it is the concentration that gives 50% inhibition.

Structures are written as SMILES.

One assay concerns MRSA N315. The assay can be described thus: In vitro infectivity assay (MIC), broth dilution, Exp. Ex. 1-1. Type of assay: cell-based, Staphylococcus aureus. The note with it: Staphylococcus aureus; MRSA N315; Mueller-Hinton broth, 35° C., 24 hours; read-out: MIC MRSA N315. Put shortly:
(§1)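 Antibacterial activity was determined by the CLSI broth dilution technique. Bacteria at about 10^5 CUF/[…] grew in Mueller-Hinton broth containing 0.85% NaCl for 24 hours at 35° C., and minimum inhibitory concentrations were recorded from three measurements.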
(In general: Broth dilution looks for growth in wells or tubes with falling amounts of substance.)

Another assay relates to VISA Mu50. Described as above. Type of assay: cell-based, Staphylococcus aureus. As to conditions: Staphylococcus aureus; VISA Mu50; Mueller-Hinton broth, 35° C., 24 hours; read-out: MIC VISA Mu50. Put shortly: as §1
In another assay the test system is MSSA FDA 209P. The assay is described as above. In kind it is cell-based, Staphylococcus aureus. As to conditions: Staphylococcus aureus; MSSA FDA 209P; Mueller-Hinton broth, 35° C., 24 hours; read-out: MIC MSS 209P. Put shortly: as §1
Another assay deals with MRSA OM481. The assay is described as above. Type of assay: cell-based, Staphylococcus aureus. As to conditions: Staphylococcus aureus; MRSA OM481; Mueller-Hinton broth, 35° C., 24 hours; read-out: MIC MRSA OM481. The method in brief: as §1
Another assay has as its system MRSA OM58. Described as above. Type of assay: cell-based, Staphylococcus aureus. As to conditions: Staphylococcus aureus; MRSA OM58; Mueller-Hinton broth, 35° C., 24 hours; read-out: MIC MRSA OM58. The method in brief:
as §1

The target of assay [1] is T1, DNA gyrase of Escherichia coli (Escherichia coli, UniProt P0AES4+P0AES6).
T1 construct: purchased John Innes Enterprises #K0001
T1 sequence (P0AES4 whole entry, one chain of several): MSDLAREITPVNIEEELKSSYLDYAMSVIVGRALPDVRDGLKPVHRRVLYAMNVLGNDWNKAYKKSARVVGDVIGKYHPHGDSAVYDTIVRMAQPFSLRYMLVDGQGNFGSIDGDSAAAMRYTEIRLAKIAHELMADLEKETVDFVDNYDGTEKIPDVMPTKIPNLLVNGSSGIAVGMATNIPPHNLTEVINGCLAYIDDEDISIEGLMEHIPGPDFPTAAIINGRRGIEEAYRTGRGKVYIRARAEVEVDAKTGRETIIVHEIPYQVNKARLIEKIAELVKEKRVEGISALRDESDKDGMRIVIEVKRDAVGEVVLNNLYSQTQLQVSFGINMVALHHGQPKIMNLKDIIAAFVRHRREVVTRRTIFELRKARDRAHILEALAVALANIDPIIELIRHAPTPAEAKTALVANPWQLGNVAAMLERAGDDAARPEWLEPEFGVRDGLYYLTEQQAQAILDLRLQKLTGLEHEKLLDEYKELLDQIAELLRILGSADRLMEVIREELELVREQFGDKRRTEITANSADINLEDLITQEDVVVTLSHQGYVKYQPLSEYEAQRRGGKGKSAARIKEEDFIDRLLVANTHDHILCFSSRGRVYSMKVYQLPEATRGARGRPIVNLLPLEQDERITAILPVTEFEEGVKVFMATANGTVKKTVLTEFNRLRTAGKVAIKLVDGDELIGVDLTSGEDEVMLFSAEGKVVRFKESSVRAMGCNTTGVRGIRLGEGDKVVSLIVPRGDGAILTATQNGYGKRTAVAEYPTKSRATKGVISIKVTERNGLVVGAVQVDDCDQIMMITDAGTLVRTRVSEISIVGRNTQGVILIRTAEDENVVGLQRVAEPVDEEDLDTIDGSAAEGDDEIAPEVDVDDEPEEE
The assay can be described thus: DNA gyrase inhibition (supercoiling assay kit), Exp. Ex. 1-2. Type of assay: biochemical. As to conditions: E. coli DNA gyrase supercoiling, relaxed pBR322, 37° C., 30 minutes; read-out: Gyrase inhibitory activity IC50 (converted). Put shortly: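 Relaxed pBR322 DNA […] supercoiled by 1 U E. coli gyrase for 30 min at 37 °C in 35 mM Tris-HCl pH 7.5, 24 mM KCl, 4 mM MgCl2, 2 mM DTT, 1.8 mM spermidine, 1 mM ATP, 6.5% glycerol, 0.1 mg/ml BSA. Products resolved by gel electrophoresis; IC50 determined.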

For assay [2], the target named is T2, Escherichia coli Topoisomerase IV (Escherichia coli, UniProt P0AFI2+P20083).
T2 construct: purchased John Innes Enterprises
T2 sequence (P20083 whole entry): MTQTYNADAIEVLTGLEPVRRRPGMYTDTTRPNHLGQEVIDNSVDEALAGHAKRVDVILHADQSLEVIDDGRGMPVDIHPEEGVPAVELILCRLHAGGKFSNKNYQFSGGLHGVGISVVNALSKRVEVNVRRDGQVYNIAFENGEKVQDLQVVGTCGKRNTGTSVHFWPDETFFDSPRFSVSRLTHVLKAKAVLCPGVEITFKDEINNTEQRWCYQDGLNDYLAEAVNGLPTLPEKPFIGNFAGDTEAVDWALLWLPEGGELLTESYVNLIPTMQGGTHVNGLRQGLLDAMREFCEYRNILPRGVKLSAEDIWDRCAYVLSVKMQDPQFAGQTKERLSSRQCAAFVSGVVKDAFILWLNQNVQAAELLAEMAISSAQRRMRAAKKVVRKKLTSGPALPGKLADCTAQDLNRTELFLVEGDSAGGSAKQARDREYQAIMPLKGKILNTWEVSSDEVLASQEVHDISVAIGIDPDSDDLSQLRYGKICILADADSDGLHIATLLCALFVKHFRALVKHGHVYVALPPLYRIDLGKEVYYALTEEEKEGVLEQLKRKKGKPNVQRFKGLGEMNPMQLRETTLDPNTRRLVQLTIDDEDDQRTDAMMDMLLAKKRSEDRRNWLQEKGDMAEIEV
T2 sequence (P0AFI2 whole entry): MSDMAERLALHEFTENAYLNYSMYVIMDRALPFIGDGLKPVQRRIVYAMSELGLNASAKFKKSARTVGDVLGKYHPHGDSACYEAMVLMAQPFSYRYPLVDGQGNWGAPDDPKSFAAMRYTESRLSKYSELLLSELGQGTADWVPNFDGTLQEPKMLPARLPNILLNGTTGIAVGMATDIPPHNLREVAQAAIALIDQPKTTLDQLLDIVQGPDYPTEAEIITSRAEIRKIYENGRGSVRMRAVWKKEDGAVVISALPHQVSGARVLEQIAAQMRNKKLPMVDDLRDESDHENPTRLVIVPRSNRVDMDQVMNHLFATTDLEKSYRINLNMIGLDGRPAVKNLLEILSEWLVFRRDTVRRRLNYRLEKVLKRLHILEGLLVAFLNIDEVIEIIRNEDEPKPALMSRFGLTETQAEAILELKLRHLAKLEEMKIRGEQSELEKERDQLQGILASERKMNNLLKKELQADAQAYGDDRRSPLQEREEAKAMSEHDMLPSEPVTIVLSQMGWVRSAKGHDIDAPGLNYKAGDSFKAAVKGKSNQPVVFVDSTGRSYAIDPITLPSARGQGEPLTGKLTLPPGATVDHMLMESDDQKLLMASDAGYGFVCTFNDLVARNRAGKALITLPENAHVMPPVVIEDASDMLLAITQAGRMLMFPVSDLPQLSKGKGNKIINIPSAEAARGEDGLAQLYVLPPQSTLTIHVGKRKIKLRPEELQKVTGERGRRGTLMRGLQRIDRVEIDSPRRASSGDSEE
The assay can be described thus: Topoisomerase IV inhibition (decatenation kit), Exp. Ex. 2-3. In kind it is biochemical. As to conditions: decatenation of kDNA, 37° C., 30 minutes; read-out: IC50 (E. coli topoisomerase IV inhibitions). Put shortly: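 Decatenation of 200 ng kinetoplast DNA by 1 unit enzyme, 30 min at 37 °C. S. aureus: 50 mM Tris-HCl pH 7.5, 350 mM potassium glutamate, 1.5 mM ATP; E. coli: 50 mM HEPES-KOH pH 7.6, 100 mM potassium glutamate, 1 mM ATP. Products resolved on 1.0% agarose in TAE.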

Regarding `O=c1c(O)c(-c2ccc(O)c(O)c2)oc2cc(O)cc(O)c12` [Quercetin, quercetin, reference compound], the minimum inhibitory concentration (MIC) with MRSA N315, in the assay with VISA Mu50, in the assay with MSSA FDA 209P, in the assay with MRSA OM481 and in the assay on MRSA OM58 was over 128 µg/mL in each case. Also, the half-maximal inhibitory concentration (IC50) in assay [1] is 2.61 µM; in assay [2], 4.42 µM.

The values above are taken from patent US8916526B2, “Flavanone derivative” (National University Corporation Okayama University, priority 2009, dated 2014).
